Data reported in article PMC5539068, “Structural optimization and evaluation of novel 2-pyrrolidone-fused (2-oxoindolin-3-ylidene)methylpyrrole derivatives as potential VEGFR-2/PDGFRβ inhibitors” (Chemistry Central Journal, 2017).

Experiments:
HCT116 cells [1] = settings: VEGFR-1/2 inhibitor; cited from earlier work
PDGFRβ = PDGFRβ (Homo sapiens, UniProt P09619); test: In-vitro kinase assay (HotSpot, 33P), PDGFRβ
HCT116 cells [2] = test: Cell proliferation assay (MTT), HCT116; settings: Homo sapiens, HCT-116, 72 h, read-out: IC50 HCT116
Experimental: (§1) Serial dilutions of indicated compounds were added and incubated for additional 72 h. At the end of the incubation, cell viability was determined by the 3-(4,5-dimethylthiazol-2-yl)-2,5-diphenyl tetrazolium bromide (MTT) assay. The MTT formazan crystals formed were dissolved in DMSO, and the absorbance at 570 nm was recorded using a microplate spectrophotometer (Thermo Fisher Scientific, Waltham, MA, USA) [46].

Detroit 551 cells = test: Cell proliferation assay (MTT), normal fibroblast Detroit 551; settings: Homo sapiens, Detroit 551, 72 h, read-out: IC50 Detroit 551
Experimental: as §1

HUVEC cells = test: In-vitro VEGF-induced Matrigel tube formation assay; format: cell-based, human; settings: for IC50: Homo sapiens, HUVEC, VEGF 10 ng/ml, Matrigel, 6 h, read-out: IC50 Area (in vitro tube formation)
Experimental: The in vitro tube formation assay was assessed using ibidi μ-Slides (15-well, ibidi GmbH, Martinsried, Germany) in accordance with manufacturer’s protocol. Briefly, growth factor reduced Matrigel (10 μl) (Sigma, St. Louis MO) was added to the inner well of ibidi μ-Slides, and incubated at 37 °C for 1 h. […] 10,000 HUVEC cells in 50 μl of above growth medium was added to Matrigel (Sigma, St. Louis MO, USA) coated ibidi μ-Slides. After 6 h of incubation at 37 °C, the supernatant was discarded, and 50 μl of serum-free medium with diluted calcein AM (6.25 μg/ml) was added to above ibidi μ-Slides. After incubation in the dark at room temperature for 30 min, the μ-Slides were washed with PBS (50 μl) and fluorescence pictures were taken at 485 nm with a Leica DM1000 LED microscope (Leica Microsystems, Wetzlar, Hessen, Germany).

VEGFR-2 = VEGFR-2 (Homo sapiens, UniProt P35968); test: In-vitro kinase assay (HotSpot, 33P), VEGFR-2; settings: for inhibition at 0.08 µM: read-out: % inhibition of VEGFR-2 at 80 nM
Experimental: Next, the VEGFR-2 phosphorylation inhibitory activities of the newly synthesized compounds were evaluated.
(§2) Briefly, specific kinase and substrate and required cofactors were prepared in reaction buffer. Test compounds were added to the reaction and after 20 min a mixture of ATP (Sigma, St. Louis MO, USA) and ^33P ATP (Perkin Elmer, Waltham MA, USA) was added to make a final concentration of 10.0 μM. Reactions were stood at room temperature for 120 min, and then the reactions were spotted onto a P81 ion exchange filter paper (Whatman Inc., Piscataway, NJ, USA). Unbound phosphate was removed by extensive washing of filters in 0.1% phosphoric acid. Kinase activity data was reported as the percent remaining kinase activity in test compounds compared to the solvent control dimethyl sulfoxide (DMSO).

786-O cells = test: Cell proliferation assay (MTT), 786-O; settings: Homo sapiens, 786-0, 72 h, read-out: IC50 786-O
Experimental: as §1

[3] = Preliminary pharmacokinetic studies; settings: no data shown
Aurora A = target: T1, Aurora A (Homo sapiens, UniProt O14965); test: In-vitro kinase assay (HotSpot, 33P), Aurora A; settings: ATP 10.0 μM; for inhibition at 1 µM: read-out: % inhibition of Aurora A at 1.0 μM, 1.0 μM compound
T1 sequence (O14965 1-403): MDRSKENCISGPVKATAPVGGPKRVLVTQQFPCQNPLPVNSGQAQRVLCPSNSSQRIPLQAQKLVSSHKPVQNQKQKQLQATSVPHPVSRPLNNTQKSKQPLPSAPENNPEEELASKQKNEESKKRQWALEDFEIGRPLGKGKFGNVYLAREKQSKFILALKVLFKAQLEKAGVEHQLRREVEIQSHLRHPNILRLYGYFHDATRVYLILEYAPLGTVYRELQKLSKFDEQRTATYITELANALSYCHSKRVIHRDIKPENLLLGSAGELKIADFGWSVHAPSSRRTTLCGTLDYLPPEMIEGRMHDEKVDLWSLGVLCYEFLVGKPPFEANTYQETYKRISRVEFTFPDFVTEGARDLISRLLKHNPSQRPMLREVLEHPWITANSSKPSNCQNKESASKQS
Experimental: as §2

NCI-H460 cells = test: Cell proliferation assay (MTT), NCI-H460; settings: Homo sapiens, NCI-H460, 72 h, read-out: IC50 NCI-H460
Experimental: as §1

HCT116 cells [4] = test: Cell cycle analysis by image cytometry (DAPI); settings: 3.0 μM, 24 h; preliminary
Experimental: Cell cycle profiles of HCT116 cells were determined with an NC-3000 image cytometer (ChemoMetec, Allerod, Denmark) in accordance with manufacturer’s protocol. Briefly, cells were seeded at 200,000 cells/well on a 6-well plate for 24 h. […] After incubation for 24 h, 100,000 cells were harvested and centrifuged at 400 g at room temperature for 5 min, washed once with PBS (50 μM), and resuspended in lysis buffer (50 μl) (ChemoMetec, Allerod, Denmark) containing 10 μg/ml of 2-(4-amidinophenyl)-1H-indole-6-carboxamidine (DAPI, ChemoMetec, Allerod, Denmark). […] The cellular fluorescence was measured with an NC-3000 image cytometer using NC-SlideA8 (ChemoMetec, Allerod, Denmark). The NC-3000 software (ChemoMetec, Allerod, Denmark) was used for image acquisition, image analysis and quantification, and data visualization.

[5] = system: patients with advanced colorectal cancer; design: method as in earlier work; settings: Phase IIb, cited from earlier work

Sequence of VEGFR-2 (P35968 20-1356): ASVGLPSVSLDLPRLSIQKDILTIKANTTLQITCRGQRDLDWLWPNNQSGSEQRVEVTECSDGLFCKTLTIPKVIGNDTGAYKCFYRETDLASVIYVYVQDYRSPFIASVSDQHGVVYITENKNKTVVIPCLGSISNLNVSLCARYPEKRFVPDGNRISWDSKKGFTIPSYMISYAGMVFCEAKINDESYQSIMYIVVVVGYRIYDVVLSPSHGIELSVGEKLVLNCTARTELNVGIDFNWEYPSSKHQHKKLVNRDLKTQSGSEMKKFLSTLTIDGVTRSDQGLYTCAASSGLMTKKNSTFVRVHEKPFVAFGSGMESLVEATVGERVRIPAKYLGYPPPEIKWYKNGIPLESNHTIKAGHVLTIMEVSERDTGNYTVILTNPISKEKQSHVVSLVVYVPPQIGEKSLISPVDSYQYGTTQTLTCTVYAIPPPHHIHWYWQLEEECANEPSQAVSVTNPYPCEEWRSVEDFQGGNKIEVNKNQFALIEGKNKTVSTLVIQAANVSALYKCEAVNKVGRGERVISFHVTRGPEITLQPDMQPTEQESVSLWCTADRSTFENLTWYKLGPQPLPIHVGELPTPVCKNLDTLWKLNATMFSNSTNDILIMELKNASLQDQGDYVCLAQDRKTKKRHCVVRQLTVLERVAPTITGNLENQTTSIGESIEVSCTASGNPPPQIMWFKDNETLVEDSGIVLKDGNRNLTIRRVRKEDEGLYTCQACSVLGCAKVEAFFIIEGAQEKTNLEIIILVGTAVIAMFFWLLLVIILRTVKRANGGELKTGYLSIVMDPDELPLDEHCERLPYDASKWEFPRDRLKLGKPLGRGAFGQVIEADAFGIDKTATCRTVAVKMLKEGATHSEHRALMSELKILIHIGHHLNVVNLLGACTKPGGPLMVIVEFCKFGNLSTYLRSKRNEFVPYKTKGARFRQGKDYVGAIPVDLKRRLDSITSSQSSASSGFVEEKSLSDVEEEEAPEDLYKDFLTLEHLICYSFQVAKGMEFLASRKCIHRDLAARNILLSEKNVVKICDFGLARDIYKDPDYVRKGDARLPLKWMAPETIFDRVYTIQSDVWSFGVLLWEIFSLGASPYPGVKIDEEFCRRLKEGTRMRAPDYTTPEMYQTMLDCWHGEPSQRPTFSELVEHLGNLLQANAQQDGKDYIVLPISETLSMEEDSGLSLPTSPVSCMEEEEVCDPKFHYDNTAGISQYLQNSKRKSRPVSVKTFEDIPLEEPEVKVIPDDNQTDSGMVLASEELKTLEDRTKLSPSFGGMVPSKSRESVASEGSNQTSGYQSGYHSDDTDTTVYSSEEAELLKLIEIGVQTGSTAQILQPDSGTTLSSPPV
Sequence of PDGFRβ (P09619 33-1106): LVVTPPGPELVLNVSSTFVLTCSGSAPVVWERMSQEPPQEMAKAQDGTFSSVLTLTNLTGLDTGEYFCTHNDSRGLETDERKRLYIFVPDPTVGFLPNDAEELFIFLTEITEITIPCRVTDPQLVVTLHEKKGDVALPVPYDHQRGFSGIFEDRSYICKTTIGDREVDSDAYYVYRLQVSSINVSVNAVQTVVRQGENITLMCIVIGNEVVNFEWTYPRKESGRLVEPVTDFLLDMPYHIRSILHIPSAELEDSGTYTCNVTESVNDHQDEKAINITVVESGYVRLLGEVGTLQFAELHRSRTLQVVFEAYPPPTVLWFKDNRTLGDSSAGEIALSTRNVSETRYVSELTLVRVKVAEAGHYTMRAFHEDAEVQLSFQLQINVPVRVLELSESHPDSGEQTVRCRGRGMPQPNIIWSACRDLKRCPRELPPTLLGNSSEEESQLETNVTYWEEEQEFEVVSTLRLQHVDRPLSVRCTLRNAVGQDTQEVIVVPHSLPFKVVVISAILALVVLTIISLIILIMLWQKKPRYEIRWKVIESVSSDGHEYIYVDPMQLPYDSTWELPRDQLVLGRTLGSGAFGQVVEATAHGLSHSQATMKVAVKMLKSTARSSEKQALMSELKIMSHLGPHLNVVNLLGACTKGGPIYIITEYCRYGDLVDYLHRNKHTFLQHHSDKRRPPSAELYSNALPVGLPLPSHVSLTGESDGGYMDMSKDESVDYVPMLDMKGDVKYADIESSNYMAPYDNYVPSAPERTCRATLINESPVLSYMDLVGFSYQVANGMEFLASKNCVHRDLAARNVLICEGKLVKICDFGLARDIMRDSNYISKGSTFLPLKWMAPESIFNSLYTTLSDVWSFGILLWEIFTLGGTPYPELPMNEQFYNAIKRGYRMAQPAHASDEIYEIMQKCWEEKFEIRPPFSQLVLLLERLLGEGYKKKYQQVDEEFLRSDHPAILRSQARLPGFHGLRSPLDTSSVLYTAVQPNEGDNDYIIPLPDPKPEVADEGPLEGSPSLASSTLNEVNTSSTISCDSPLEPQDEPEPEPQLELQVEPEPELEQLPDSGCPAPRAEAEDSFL

Row | IC50 (PDGFRβ) | IC50 (HCT116 cells [2]) | melting point | IC50 (VEGFR-2) | inhibition at 0.08 µM (VEGFR-2) | IC50 (786-O cells) | preliminary results in pharmacokinetic studies [3] | % inhibition of Aurora A at 1.0 μM (Aurora A; 1.0 μM compound) | inhibition at 1 µM (Aurora A) | IC50 (NCI-H460 cells) | SMILES | proliferation of HCT116 cells (HCT116 cells [1]) | IC50 (Detroit 551 cells) | IC50 (HUVEC cells) | cell cycle profile effect (HCT116 cells [4]) | progression free survival (PFS) ([5]; compared to placebo) | toxicity [5] | potency in inhibiting in vitro tube formation relative to sunitinib in terms of IC50 (HUVEC cells; versus sunitinib)
1 | – | – | – | – | – | – | – | – | – | – | O=C(Nc1cccc(C(F)(F)F)c1)c1ccccc1NCc1ccncc1 [AAL993] | significantly decreases proliferation | – | – | – | – | – | –
2 | 12.1 nM | 2340 ± 200 nM | 257 to 260 °C | 14.6 nM | 57% | > 10000 nM | satisfactory | 96.4% | 93.6% | > 10000 nM | CCN(CC)CCN1Cc2[nH]c(/C=C3\C(=O)Nc4ccc(S)cc43)c(C)c2C1=O [Compound 15, (Z)-3-((5-(2-(diethylamino)ethyl)-3-methyl-4-oxo-1,4,5,6-tetrahydropyrrolo[3,4-b]pyrrol-2-yl)methylene)-5-mercaptoindolin-2-one] | – | > 10000 nM | 530 ± 110 nM | increase in tetraploid cells | – | – | –
3 | – | – | – | – | – | – | – | – | – | – | CCN(CC)CCN1CCc2[nH]c(/C=C3\C(=O)Nc4ccc(F)cc43)c(C)c2C1=O [famitinib] | – | – | – | – | significantly improved progression free survival (PFS) | manageable | –
4 | 28.5 nM | 2830 ± 400 nM | 240 to 242 °C | 25.9 nM | 58% | > 10000 nM | satisfactory | – | 93.6% | > 10000 nM | CCN(CC)CCN1Cc2[nH]c(/C=C3\C(=O)Nc4ccc(O)cc43)c(C)c2C1=O [Compound 14, (Z)-3-((5-(2-(diethylamino)ethyl)-3-methyl-4-oxo-1,4,5,6-tetrahydropyrrolo[3,4-b]pyrrol-2-yl)methylene)-5-hydroxyindolin-2-one] | – | > 10000 nM | 620 ± 70 nM | G0/G1 cell cycle arrest | – | – | roughly 2.5 fold
